Test results published in US20020025508A1, “Process for finding a protease inhibitor” (priority 2000, published 2002).
Residues, ends and D or L forms follow the SMILES beside them. *: point of attachment. Cbz = O=C(OCc1ccccc1)*

Columns and labels:
Type in all cases: cell-based, human
γ-secretase = γ-secretase HTS luciferase reporter assay (Aβ-KKK/Gal4 substrate, SteadyGlo); conditions: different concentrations; for inhibition of Aβ formation (luciferase signal): cell clones Aβ-KKK-ER/40, 59, 65 and Aβ-KKK/52 (also Aβ-KKK/40 for substance B), overnight
From the text: H4 neuroglioma cells (Accession Number HTB 148 at the American Type Culture Collection, Manassas, Va., USA) were stably transfected under standard conditions with the reporter construct pFRLuc (Stratagene) which carries the gene for luciferase which is under the control of a promoter containing the Gal4 DNA binding domain. […] In order to prepare the Aβ-KKK/Gal4 construct, a sequence which contained the N-terminal signal sequence of APP and the first 55 amino acids of Aβ (Shoji, M. et al., Science, 1992; 158:126-129) was attached to the Gal4 coding sequence (Laughan, A. and Gesteland, R., Molec. Cell Biol., 1984, 4:260-267) by genetic engineering methods and cloned into the expression vector pcDNA3neo (Invitrogen). This construct was designated Aβ-KKK/Gal4. In order to insert an ER-retention signal in the substrate of the γ-secretase, the last nucleotides of the Gal4 were modified by genetic engineering methods so that they coded for amino acids KKLI. This construct was named Aβ-KKK-ER/Gal4. The cell clone obtained as described above was used for the second stable transfection with pcDNA3/Aβ-KKK/Gal4 or pcDNA3/Aβ-KKK-ER/Gal4 and the selection was carried out with neomycin under standard conditions (Sambrook and Maniatis, Molecular Cloning: A Laboratory Manual, Cold Spring Harbor Laboratory, Cold Spring Harbor, N.Y., 1989). Individual neomycin-resistant cell clones were tested for expression of luciferase. The clones with the highest expression were used for the substance analyses. All the transfections were carried out using the Fugene transfection system of Boehringer Mannheim in accordance with the manufacturer's instructions.
The doubly stable HTS cell line is seeded onto a 96/384 microtitre plate. When the cells achieved confluence they are incubated with the test substance in question for a specified length of time.
By the presence of an endogenous or exogenous γ-secretase activity in the H4 cells, the substrate (Aβ-KKK/Gal4) is cleaved proteolytically, whereupon the transactivator Gal4 can detach itself from the membrane and enter the cell nucleus. In the cell nucleus, Gal4 binds to the Gal4 DNA binding domain of the reporter construct and thus activates the expression of the luciferase. When a specific γ-secretase inhibitor is present the substrate cannot be cleaved and Gal4 remains bound to the substrate on the cell membrane, leading to a reduction and even total inhibition of the luciferase activity.
Cells are seeded onto 96/[…] well plates in DMEM whole medium (10% FCS, 1% glutamine, 1% penicillin/streptomycin) in a dilution of 1:5. […] Then, the luminescence is measured. […]

[1] = tested on: HTS test cell lines Aβ-KKK-ER/59 and Aβ-KKK/52 (H4 cells); test: Alamar Blue vitality (cytotoxicity) test; conditions: clones Aβ-KKK-ER/59 and Aβ-KKK/52, entire range of concentrations, parallel to luciferase test
Experimental: A possible toxic effect of the BFA (in different concentrations) on the cells was investigated using an Alamar Blue test (see below) which was carried out in parallel to the luciferase test.
Alamar Blue (Messrs. Biosource International, VE=100 ml, Cat.No. DAL 1100 (AL-01 -100)) was sterile-filtered. The seeding of the cells and substance incubation were carried out as in Example 1.
The Alamar blue incubation was carried out parallel to the luciferase test.
Alamar blue was diluted to 5% with whole medium (DMEM m 4.5 g/l glucose+10% FCS+1% glutamine+1% Pen/Strep). The medium was suction filtered. The cells were washed once with medium or PBS. One hundred microliters of (5%) Alamar blue were added (96 well plate) and a plate was incubated for 1 hour in the incubator at 37° C. and in 5% CO2. Fluorimetric measurement was carried out at an input wavelength of 544 nm, an emission wavelength of 590 nm and a measuring time of 0.3 s/well. The results are given as a percentage of the control.

[2] = tested on: Aβ40 and Aβ42 secreted by U373/APP751 cell line; test: ELISA of extracellular Aβ40 and Aβ42 secreted by U373/APP751 cells
Experimental: Substance A was also active in a cellular test system in which the extracellular content of Aβ40 and Aβ42 secreted by the U373 cell line (U373: ATCC No. HTB 14) was determined. This cell line, U373/APP751, is an astrocytoma cell line which overexpresses human APP751 and secretes large amounts of Aβ40 (about 1000 pg/ml/4 hours with 5×10^7 cells in 15 ml of medium) and Aβ42 (about 1000 pg/ml/4 hours with 5×10^7 cells in 15 ml of medium). The measurement is carried out by ELISA (Steiner, H. et al., J. Biol. Chem, 1998, 273:32322-32331).

## CC(C)C(NC(=O)OCc1ccccc1)C(=O)NC(C=O)Cc1ccccc1 (stereo not drawn) [Substance B] (Cbz-Val-Phe-aldehyde; configuration not given here)
γ-secretase
  inhibition of Aβ formation (luciferase signal): does not inhibit Aβ formation in concentration-dependent manner

## C[C@H]1CCC/C=C/[C@@H]2C[C@H](O)C[C@H]2[C@H](O)/C=C/C(=O)O1 [BFA, Brefeldin A, reference compound]
γ-secretase; cell clone Aβ-KKK/52 (without ER retention signal), 6 hours
  BFA effect on luciferase signal: clear BFA effect could be seen
[1]
  loss of vitality (toxic effect on the cells): No loss of vitality

## Cc1nccn1Cc1ccccn1 [Substance C]
γ-secretase
  inhibition of Aβ formation (luciferase signal): does not inhibit Aβ formation in concentration-dependent manner

## CCCCNC(=O)[C@@H](C[C@H](O)[C@H](CC1CCCCC1)NCCCC(C)C)C(C)C [Substance A]
[2]
  Aβ40 secretion: greatly reduced in concentration-dependent manner
  Aβ42 secretion: increased at sub-inhibitory doses and then also inhibited at higher doses
γ-secretase
  inhibition of Aβ formation (luciferase signal): inhibits Aβ formation in a manner dependent on concentration
